According to paper PMC2809102, “Two New Pimelic Diphenylamide HDAC Inhibitors Induce Sustained Frataxin Upregulation in Cells from Friedreich's Ataxia Patients and in a Mouse Model” (PLoS ONE, 2010):

Columns and labels:
FXN gene expression = system: FXN gene expression; set-up: method as in PMID 16921367, PMID 18463734; details: FRDA patient cells; cited from earlier work
[1] = system: frataxin mRNA in PBMC from FRDA patients; assay: FXN mRNA by quantitative real-time RT-PCR in unstimulated PBMC from FRDA patients; type: cell-based, human; details: 10 µM
[2] = system: frataxin mRNA in KIKI splenocytes; assay: Fxn mRNA by qRT-PCR in unstimulated KIKI mouse splenocytes; type: cell-based; details: 10 µM, 48 hours
[3] = system: frataxin in brain and heart of wild-type mice; set-up: method as in PMID 16921367; details: cited from earlier work
[4] = Levels of compound in mouse brain and plasma after single injection; type: in vivo; details: single 150 mg/Kg injection
[5] = system: FXN mRNA in healthy volunteers PBMCs; assay: FXN mRNA by qRT-PCR in PBMCs from healthy volunteers; type: cell-based, human; details: 10 µM, 48 h
[6] = system: frataxin mRNA in brain and heart of KIKI mice; assay: Fxn mRNA by qRT-PCR in brain and heart of KIKI mice after single subcutaneous injection; type: in vivo, mouse
[7] = system: histone acetylation H3K14 and H4K5 at fxn gene; assay: ChIP of H3K14 and H4K5 acetylation upstream of GAA repeat in KIKI mouse brain; type: in vivo; details: KIKI mice, 50 or 150 mg/kg s.c.

Compound: Nc1ccccc1NC(=O)CCCCCCC(=O)Nc1ccccc1 [BML-210]
- effect on FXN gene expression (FXN gene expression): relieve repression of the FXN gene

Compound: O=C(CCCCCCC(=O)Nc1ccccc1)NO [SAHA, suberoylanilide hydroxamic acid]
- effect on FXN gene expression (FXN gene expression): inactive

Compound: CC(/C=C/C(=O)NO)=C\[C@@H](C)C(=O)c1ccc(N(C)C)cc1 [TSA, trichostatin A]
- effect on FXN gene expression (FXN gene expression): inactive

Compound: Cc1ccc(NC(=O)CCCCCC(=O)Nc2ccccc2N)cc1 [compound 106, N ^1-(2-aminophenyl)-N ^7-p-tolylheptanediamide, reference compound]
- increase of frataxin mRNA levels, average ([1]; 48-hour incubation, average of patients, DMSO = 1): 3.6 fold
- frataxin mRNA upregulation in mouse splenocytes [2]: significant
- frataxin upregulation in brain and heart of wild-type mice [3]: no frataxin upregulation

Compound: Cc1ccc(C(=O)NCCCCCC(=O)Nc2ccccc2N)cc1 [compound 109]
- time to total elimination from brain and plasma [4]: < 4 h

Compound: Cc1ccc(C(=O)NCCCCCC(=O)Nc2ccc(F)cc2N)cc1 [compound 136]
- effect on frataxin mRNA ([1]; 48 h, compared to 10 µM compound 106): limited effect
- FXN mRNA in healthy volunteers PBMCs [5]: not overall significantly affected
- FXN mRNA trend in healthy volunteers PBMCs ([5]; non-significant): trend toward downregulation
- frataxin mRNA in brain ([6]; single s.c. 150 mg/kg, 24 hours after injection): increase in frataxin mRNA in the brain to wild-type levels
- Fxn mRNA in heart ([6]; single s.c. dose, only at 50 or 150 mg/kg (not 5, 15), p = 0.009 and 0.008): significantly increased
- Fxn mRNA in brain ([6]; single s.c. dose, only at 50 or 150 mg/kg (not 5, 15), p<0.001): significantly increased
- histone acetylation H3K14 and H4K5 upstream of GAA repeat, brain [7]: increase in histone acetylation
- frataxin mRNA upregulation in mouse splenocytes [2]: significant
